Experimental data published in patent publication US7303770B2, “Cancer chemoprotective food products” (Johns Hopkins School of Medicine, priority 1997, dated 2007).

Key:
[1] = test system: QR activity in Hepa 1c1c7 murine hepatoma cells; details: reported values, cited from earlier work
[2] = test system: QR activity in Hepa 1c1c7 murine hepatoma cells; test: Inducer activity: QR induction in Hepa 1c1c7 microtiter bioassay, extracts untreated with myrosinase; format: cell-based; details: without myrosinase hydrolysis
Procedure: Inducer activity or Phase 2 enzyme-inducing activity is a measure of the ability of a compound(s) to induce Phase 2 enzyme activity. In the present invention, inducer activity is measured by means of the murine hepatoma cell bioassay of QR activity in vitro. Inducer activity is defined herein as QR inducing activity in Hepa 1c1c7 cells (murine hepatoma cells) incubated with extracts of sprouts, seeds or other plant parts untreated with myrosinase. Inducer activity is measured in Hepa 1c1c7 murine hepatoma cells grown in 96-well microtiter plates. Typically 10,000 Hepa 1c1c7 cells are introduced into each well. Hepatoma cells are grown for 24 hours and a plant extract containing microgram quantities of fresh plant tissue is serially diluted across the microtiter plates into fresh culture medium containing 0.15 ml αMEM culture medium amended with 10% Fetal Calf Serum (FCS) and streptomycin and penicillin. The cells are further incubated for 48 hours. QR activity (based on the formation of the blue-brown reduced tetrazolium dye) is measured with an optical microtiter plate scanner in cell lysates prepared in one plate, and related to its protein concentration. Quantitative information on specific activity of QR is obtained by computer analysis of the absorbances. One unit of inducer activity is the amount that when added to a single microtiter well doubles the QR activity. […]

[3] = test system: QR activity in Hepa 1c1c7 murine hepatoma cells; test: Inducer potential: QR induction in Hepa 1c1c7 microtiter bioassay, myrosinase-treated extracts; format: cell-based; details: ammonium salts of isolated peaks
Procedure: Inducer potential or Phase 2 enzyme-inducing potential is a measure of the combined amounts of inducer activity in plant tissue provided by isothiocyanates, plus glucosinolates that can be converted by myrosinase to isothiocyanates. Glucosinolates are not themselves inducers of mammalian Phase 2 enzymes, whereas isothiocyanates are inducers. Inducer potential therefore is defined herein as QR activity in murine 1c1c7 hepatoma cells incubated with myrosinase-treated extracts of the sprouts, seeds or other plant parts. In the present invention therefore inducer potential is measured by means of the murine hepatoma cell bioassay of QR activity in vitro as described above. Inducer potential is measured in Hepa 1c1c7 murine hepatoma cells grown in 96-well microtiter plates. […] Hepatoma cells are grown for 24 hours and a plant extract containing microgram quantities of fresh plant tissue is serially diluted across the microtiter plates into fresh culture medium containing 0.15 ml αMEM culture medium amended with 10% Fetal Calf Serum (FCS) and streptomycin and penicillin. […] QR activity (based on the formation of the blue-brown reduced tetrazolium dye) is measured with an optical microtiter plate scanner in cell lysates prepared in one plate, and related to its protein concentration. Quantitative information on specific activity of QR is obtained by computer analysis of absorbances. […]

SMILES | Inducer potency corresponding to reported CD value ([1]; Hepa 1c1c7) | CD value (concentration required to double QR specific activity) ([1]; Hepa 1c1c7 murine hepatoma cells) [µM] | Inducer activity of isolated PIC peaks [2] | Inducer potency after myrosinase hydrolysis [3]
C[S+]([O-])CCCCN=C=S (stereo not drawn) [sulforaphane] | 33,333 units/μmol | 0.2 | – | –
CSCCCCC(=NOS(=O)(=O)O)S[C@@H]1O[C@H](CO)[C@@H](O)[C@H](O)[C@H]1O (single isomer, unassigned; peak c) [Peak C, 4-methythiobutyl glucosinolate] | – | – | no significant inducer activity | 4,360 units/μmol
C[S+]([O-])CCCC/C(=N\OS(=O)(=O)O)S[C@@H]1O[C@H](CO)[C@@H](O)[C@H](O)[C@H]1O (single isomer, unassigned; peak a) [Peak A, 4-methylsulfinylbutyl glucosinolate] | – | – | no significant inducer activity | 36,100 units/μmol
